Tests used:
[1] = biological target: Glycogen synthase kinase-3 beta (Homo sapiens, UniProt P49841)
Description: Inhibition of GSK3-beta assessed as NADH level after 10 mins by pyruvate kinase/lactate dehydrogenase coupled spectrophotometric assay

[2] = biological target: Vascular endothelial growth factor receptor 2 (Homo sapiens, UniProt P35968); assay: Inhibition of KDR
[3] = biological target: T1, Receptor-type tyrosine-protein kinase FLT3 (Homo sapiens, UniProt P36888); assay: Inhibition of FLT3
T1 sequence (P36888 whole entry): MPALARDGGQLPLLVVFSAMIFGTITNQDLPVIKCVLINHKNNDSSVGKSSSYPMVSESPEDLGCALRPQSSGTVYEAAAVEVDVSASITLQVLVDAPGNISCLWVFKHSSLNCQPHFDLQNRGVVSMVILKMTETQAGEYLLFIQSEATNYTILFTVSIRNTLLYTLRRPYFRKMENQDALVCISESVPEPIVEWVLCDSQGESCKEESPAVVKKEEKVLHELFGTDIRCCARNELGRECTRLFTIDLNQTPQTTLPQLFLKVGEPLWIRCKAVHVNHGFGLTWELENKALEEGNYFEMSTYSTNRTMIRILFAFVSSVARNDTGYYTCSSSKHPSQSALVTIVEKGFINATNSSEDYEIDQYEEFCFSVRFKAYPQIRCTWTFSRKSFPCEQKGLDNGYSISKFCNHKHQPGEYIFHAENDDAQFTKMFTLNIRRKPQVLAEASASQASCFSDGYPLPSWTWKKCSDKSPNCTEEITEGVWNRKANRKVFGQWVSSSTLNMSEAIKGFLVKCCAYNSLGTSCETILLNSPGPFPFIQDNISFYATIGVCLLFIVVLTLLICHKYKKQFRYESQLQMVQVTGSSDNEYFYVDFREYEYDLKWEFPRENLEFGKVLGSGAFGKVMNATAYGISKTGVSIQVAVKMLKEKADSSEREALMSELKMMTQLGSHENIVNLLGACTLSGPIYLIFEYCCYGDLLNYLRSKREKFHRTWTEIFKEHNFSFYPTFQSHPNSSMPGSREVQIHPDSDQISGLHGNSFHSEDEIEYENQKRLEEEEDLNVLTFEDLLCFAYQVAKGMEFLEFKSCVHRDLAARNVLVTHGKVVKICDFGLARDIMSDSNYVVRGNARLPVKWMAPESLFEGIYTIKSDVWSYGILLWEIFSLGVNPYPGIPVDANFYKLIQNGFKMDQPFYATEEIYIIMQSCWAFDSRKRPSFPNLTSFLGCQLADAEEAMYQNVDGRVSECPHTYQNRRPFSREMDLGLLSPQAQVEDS

[4] = biological target: Cyclin-dependent kinase 2 (Homo sapiens, UniProt P24941)
[5] = biological target: Hepatocyte growth factor receptor (Homo sapiens, UniProt P08581)
[6] = biological target: Tyrosine-protein kinase JAK2 (Homo sapiens, UniProt O60674); assay: Inhibition of JAK2
Tyrosine-protein kinase JAK2, sequence (O60674 whole entry): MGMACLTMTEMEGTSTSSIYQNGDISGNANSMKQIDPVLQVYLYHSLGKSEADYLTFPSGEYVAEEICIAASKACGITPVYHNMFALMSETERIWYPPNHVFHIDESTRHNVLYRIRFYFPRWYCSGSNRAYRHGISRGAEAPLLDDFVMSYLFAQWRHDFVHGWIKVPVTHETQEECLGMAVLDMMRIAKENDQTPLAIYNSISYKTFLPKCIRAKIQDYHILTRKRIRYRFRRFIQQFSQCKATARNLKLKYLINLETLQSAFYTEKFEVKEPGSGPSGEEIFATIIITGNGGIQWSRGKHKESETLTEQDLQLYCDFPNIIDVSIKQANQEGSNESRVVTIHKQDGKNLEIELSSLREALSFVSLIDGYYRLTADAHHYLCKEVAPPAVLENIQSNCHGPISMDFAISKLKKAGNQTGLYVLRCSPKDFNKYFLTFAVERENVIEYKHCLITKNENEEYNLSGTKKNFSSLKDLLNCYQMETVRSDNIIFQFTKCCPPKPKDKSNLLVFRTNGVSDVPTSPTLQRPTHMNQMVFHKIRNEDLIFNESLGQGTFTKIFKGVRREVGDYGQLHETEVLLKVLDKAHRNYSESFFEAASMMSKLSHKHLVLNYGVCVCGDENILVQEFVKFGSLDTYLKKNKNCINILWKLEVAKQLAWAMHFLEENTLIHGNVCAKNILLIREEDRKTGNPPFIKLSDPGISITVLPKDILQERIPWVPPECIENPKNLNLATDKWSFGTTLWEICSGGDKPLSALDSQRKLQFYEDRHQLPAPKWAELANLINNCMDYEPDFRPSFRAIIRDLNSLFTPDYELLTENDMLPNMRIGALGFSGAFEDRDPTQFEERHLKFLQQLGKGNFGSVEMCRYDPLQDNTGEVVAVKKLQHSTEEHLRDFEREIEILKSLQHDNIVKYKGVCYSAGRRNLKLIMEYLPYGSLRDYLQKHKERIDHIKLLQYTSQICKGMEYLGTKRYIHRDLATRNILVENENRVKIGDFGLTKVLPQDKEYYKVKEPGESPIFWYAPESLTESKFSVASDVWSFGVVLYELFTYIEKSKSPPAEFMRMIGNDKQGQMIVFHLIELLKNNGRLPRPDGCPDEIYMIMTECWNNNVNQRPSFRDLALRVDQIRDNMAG

[7] = Inhibition of PKA
[8] = biological target: Rho-associated protein kinase 1 (Homo sapiens, UniProt Q13464); assay: Inhibition of ROCK1
Rho-associated protein kinase 1, sequence (Q13464 whole entry): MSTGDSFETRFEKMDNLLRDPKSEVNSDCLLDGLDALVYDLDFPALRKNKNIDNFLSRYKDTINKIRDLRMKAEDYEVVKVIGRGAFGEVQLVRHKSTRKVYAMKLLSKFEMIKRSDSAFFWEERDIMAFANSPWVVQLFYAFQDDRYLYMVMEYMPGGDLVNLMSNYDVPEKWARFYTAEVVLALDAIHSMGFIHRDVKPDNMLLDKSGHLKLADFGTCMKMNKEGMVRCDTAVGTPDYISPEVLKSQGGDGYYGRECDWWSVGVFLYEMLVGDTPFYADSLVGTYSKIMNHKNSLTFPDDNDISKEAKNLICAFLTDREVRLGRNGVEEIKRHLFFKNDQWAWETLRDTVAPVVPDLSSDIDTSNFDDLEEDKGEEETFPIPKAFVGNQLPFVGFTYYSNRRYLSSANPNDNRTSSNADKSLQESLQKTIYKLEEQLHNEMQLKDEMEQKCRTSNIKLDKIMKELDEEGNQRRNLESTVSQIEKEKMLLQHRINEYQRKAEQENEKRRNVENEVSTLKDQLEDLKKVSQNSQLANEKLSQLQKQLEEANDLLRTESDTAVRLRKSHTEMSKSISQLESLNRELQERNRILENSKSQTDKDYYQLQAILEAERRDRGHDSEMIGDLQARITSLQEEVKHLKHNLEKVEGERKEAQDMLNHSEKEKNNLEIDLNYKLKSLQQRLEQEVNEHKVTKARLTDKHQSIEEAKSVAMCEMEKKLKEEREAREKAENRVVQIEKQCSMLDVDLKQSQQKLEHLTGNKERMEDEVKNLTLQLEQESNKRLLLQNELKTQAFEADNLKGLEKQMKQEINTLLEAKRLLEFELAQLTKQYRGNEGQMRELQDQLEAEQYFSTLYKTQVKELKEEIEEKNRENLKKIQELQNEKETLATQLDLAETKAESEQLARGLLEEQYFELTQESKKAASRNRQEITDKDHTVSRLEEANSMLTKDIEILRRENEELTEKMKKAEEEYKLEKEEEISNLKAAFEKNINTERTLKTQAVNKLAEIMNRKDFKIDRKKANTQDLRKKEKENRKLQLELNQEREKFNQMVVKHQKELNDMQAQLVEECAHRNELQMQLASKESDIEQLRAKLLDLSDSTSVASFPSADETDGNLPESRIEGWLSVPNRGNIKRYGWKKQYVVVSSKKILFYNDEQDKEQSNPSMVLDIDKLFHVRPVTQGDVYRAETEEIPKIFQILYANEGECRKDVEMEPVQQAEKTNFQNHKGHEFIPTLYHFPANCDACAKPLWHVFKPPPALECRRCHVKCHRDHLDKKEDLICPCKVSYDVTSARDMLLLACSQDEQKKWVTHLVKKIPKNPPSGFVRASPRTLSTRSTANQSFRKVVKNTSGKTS

[9] = biological target: Serine/threonine-protein kinase PLK1 (Homo sapiens, UniProt P53350); assay: Inhibition of PLK1
Serine/threonine-protein kinase PLK1, sequence (P53350 whole entry): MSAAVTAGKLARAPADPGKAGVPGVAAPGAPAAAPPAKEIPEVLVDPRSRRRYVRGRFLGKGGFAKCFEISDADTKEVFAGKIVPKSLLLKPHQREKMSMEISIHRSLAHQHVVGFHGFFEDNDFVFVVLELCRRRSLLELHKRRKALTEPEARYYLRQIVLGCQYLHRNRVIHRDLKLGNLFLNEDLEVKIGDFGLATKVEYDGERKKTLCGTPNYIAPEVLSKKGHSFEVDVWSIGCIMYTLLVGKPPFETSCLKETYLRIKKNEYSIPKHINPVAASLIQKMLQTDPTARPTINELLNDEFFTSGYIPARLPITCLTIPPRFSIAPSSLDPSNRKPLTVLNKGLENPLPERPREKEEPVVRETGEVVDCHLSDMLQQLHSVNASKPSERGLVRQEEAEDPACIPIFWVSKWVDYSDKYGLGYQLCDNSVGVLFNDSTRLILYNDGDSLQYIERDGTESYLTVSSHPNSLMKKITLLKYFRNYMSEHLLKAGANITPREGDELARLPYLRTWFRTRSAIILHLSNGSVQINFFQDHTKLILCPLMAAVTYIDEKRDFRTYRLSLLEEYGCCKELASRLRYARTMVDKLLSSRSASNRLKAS

[10] = biological target: T2, Interleukin-1 receptor-associated kinase 4 (Homo sapiens, UniProt Q9NWZ3); assay: Inhibition of IRAK4
T2 sequence (Q9NWZ3 whole entry): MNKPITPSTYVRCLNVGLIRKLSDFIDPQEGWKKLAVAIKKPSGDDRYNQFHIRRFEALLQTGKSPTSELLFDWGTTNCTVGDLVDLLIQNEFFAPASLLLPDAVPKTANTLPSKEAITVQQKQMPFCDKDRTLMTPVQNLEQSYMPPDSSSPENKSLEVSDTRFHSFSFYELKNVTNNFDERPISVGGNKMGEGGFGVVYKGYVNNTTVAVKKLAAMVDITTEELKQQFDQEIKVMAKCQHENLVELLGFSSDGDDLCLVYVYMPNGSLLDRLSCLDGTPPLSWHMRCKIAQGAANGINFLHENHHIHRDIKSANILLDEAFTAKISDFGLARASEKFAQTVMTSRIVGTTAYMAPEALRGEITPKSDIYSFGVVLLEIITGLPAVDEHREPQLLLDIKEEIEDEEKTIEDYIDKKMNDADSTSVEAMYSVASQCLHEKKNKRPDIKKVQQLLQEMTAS

[11] = biological target: Proto-oncogene tyrosine-protein kinase Src (Homo sapiens, UniProt P12931); assay: Inhibition of SRC
Proto-oncogene tyrosine-protein kinase Src, sequence (P12931 2-536 limits assumed): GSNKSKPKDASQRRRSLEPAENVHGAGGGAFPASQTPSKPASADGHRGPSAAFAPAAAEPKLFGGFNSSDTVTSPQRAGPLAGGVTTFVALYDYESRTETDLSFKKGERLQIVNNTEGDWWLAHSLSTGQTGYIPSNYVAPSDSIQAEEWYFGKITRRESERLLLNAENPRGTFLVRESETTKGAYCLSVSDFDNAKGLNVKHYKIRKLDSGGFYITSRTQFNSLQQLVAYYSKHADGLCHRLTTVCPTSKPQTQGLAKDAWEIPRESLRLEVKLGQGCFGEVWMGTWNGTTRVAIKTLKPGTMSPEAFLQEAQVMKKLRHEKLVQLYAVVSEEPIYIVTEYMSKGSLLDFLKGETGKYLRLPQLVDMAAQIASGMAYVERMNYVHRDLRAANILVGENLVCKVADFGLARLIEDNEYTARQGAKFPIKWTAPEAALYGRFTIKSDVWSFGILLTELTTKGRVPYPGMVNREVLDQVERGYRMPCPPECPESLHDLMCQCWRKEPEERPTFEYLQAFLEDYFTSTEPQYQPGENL

[12] = biological target: Mitogen-activated protein kinase 10 (Homo sapiens, UniProt P53779); assay: Inhibition of JNK3
Mitogen-activated protein kinase 10, sequence (P53779 whole entry): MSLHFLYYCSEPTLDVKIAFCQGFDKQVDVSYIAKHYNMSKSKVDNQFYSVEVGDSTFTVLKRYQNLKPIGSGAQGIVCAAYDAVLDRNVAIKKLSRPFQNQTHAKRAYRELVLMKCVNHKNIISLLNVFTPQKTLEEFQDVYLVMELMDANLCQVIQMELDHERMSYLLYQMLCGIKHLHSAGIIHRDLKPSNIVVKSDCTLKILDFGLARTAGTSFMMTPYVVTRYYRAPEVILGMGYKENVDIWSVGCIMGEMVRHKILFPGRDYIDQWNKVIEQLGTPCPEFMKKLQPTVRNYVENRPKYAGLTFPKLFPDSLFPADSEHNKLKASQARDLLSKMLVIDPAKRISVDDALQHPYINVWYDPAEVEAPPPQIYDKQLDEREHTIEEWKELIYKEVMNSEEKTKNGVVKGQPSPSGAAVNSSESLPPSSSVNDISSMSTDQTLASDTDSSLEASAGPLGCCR

[13] = biological target: Tyrosine-protein kinase SYK (Homo sapiens, UniProt P43405)
[14] = biological target: Phosphatidylinositol 4,5-bisphosphate 3-kinase catalytic subunit gamma isoform (Homo sapiens, UniProt P48736); assay: Inhibition of PI3Kgamma

Glycogen synthase kinase-3 beta, sequence (P49841 whole entry): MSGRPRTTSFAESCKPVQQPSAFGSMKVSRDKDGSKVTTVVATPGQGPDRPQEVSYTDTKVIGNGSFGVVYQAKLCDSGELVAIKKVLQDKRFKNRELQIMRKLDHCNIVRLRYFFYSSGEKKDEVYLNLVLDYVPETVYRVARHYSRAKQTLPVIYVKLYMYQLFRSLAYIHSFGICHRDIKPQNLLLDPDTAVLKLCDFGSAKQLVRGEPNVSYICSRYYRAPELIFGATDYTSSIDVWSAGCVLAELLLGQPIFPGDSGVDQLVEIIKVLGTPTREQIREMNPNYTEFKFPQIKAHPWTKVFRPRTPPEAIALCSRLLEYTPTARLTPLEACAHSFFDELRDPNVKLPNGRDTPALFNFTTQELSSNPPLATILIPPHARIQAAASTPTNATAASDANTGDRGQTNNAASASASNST

SMILES | Ki [1] | further results
COc1ccncc1C1=NNC(=O)/C1=N\Nc1ccncc1 | 16 nM | 
CC1=NNC(=O)/C1=N\Nc1ccccc1Cl | 460 nM | 
COc1cccc(C2=NNC(=O)/C2=N\Nc2ccc(Cl)cc2)c1 | 9 nM | 
COc1ccc(C2=NNC(=O)/C2=N\Nc2cccc(Cl)c2)cc1 | 1.9 nM | 
COc1ccc(C2=NNC(=O)/C2=N\Nc2cccnc2)cc1 | 2 nM | Ki [2]: 3400 nM; Ki [3]: 130 nM; Ki [4]: 62 nM; Ki [5]: > 4000 nM; Ki [6]: > 4000 nM; Ki [7]: > 4000 nM; Ki [8]: > 4000 nM; Ki [9]: > 4000 nM; Ki [10]: 1500 nM; Ki [11]: > 4000 nM; Ki [12]: > 4000 nM
COc1cccc(N/N=C2\C(=O)NN=C2c2cnccc2OC)c1 | 3.7 nM | 
COc1ccc(N/N=C2\C(=O)NN=C2c2cnccc2OC)cc1 | 2 nM | 
COc1cccc(C2=NNC(=O)/C2=N\Nc2ccccc2)c1 | 39 nM | 
COc1cccc(C2=NNC(=O)/C2=N\Nc2cccc(Cl)c2)c1 | 8 nM | 
CC(C)C1=NNC(=O)/C1=N\Nc1ccccc1Cl | > 3700 nM | 
O=C1NN=C(c2ccccn2)/C1=N/Nc1ccccc1Cl | 650 nM | 
O=C1NN=C(c2cccnc2)/C1=N/Nc1ccccc1Cl | 200 nM | 
O=C1NN=C(c2ccncc2)/C1=N/Nc1ccccc1Cl | 250 nM | 
O=C1NN=C(c2ccccc2)/C1=N/Nc1ccccc1Cl | 720 nM | 
COc1cccc(C2=NNC(=O)/C2=N\Nc2ccc(N(C)C)cc2)c1 | 9 nM | 
COc1cccc(C2=NNC(=O)/C2=N\Nc2ccc(N3CCOCC3)cc2)c1 | 59 nM | 
COc1ccc(C2=NNC(=O)/C2=N\Nc2ccc(Cl)cc2)cc1 | 2 nM | 
O=C1NN=C/C1=N/Nc1ccccc1Cl | 1490 nM | 
COc1ccc(C2=NNC(=O)/C2=N\Nc2cccc(OC)c2)cc1 | 0.8 nM | Ki [2]: 1800 nM; Ki [3]: 66 nM; Ki [4]: 95 nM; Ki [5]: > 4000 nM; Ki [6]: > 1600 nM; Ki [7]: > 4000 nM; Ki [8]: > 4000 nM; Ki [9]: > 4000 nM; Ki [11]: > 4000 nM; Ki [12]: > 4000 nM
COc1cccc(C2=NNC(=O)/C2=N\Nc2ccccc2Cl)c1 | 850 nM | 
COc1ccc(C2=NNC(=O)/C2=N\Nc2ccc(C#N)cc2)cc1 | < 2 nM | 

SMILES | Ki [1] | further results
COc1ccc(C2=NNC(=O)/C2=N\Nc2ccncc2)cc1 | 14 nM | 
COc1ccc(C2=NNC(=O)/C2=N\Nc2ccc(N(C)C)cc2)cc1 | 110 nM | 
CCN(CC)c1ccc(N/N=C2\C(=O)NN=C2c2ccc(OC)cc2)cc1 | 16 nM | 
COc1ccncc1C1=NNC(=O)/C1=N\Nc1ccc(C#N)cc1 | 8.3 nM | 
COc1ccncc1C1=NNC(=O)/C1=N\Nc1cccnc1 | 23 nM | 
COc1ccccc1N/N=C1\C(=O)NN=C1c1ccccc1 | > 4000 nM | 
COc1cccc(N/N=C2\C(=O)NN=C2c2ccccc2)c1 | 35 nM | 
COc1ccc(C2=NNC(=O)/C2=N\Nc2ccccc2Cl)cc1OC | 44 nM | 
O=C1NN=C(c2ccccc2)/C1=N/Nc1ccccc1 | 99 nM | 
O=C1NN=C(c2ccccc2)/C1=N/Nc1cccc(Cl)c1 | 120 nM | 
O=C1NN=C(c2ccccc2)/C1=N/Nc1ccc(Cl)cc1 | 23 nM | 
COc1ccncc1C1=NNC(=O)/C1=N\Nc1ccc(C(=O)O)cc1 | 7.7 nM | 
COc1ccncc1C1=NNC(=O)/C1=N\Nc1ccc(N2CCOCC2)cc1 | 50 nM | 
COc1ccc(N/N=C2\C(=O)NN=C2c2ccccn2)cc1 | 640 nM | 
COc1ccc(N/N=C2\C(=O)NN=C2c2cccnc2)cc1 | 20 nM | 
COc1ccc(N/N=C2\C(=O)NN=C2c2ccncc2)cc1 | 30 nM | 
COc1ccc(N/N=C2\C(=O)NN=C2c2cccc(OC)c2)cc1 | 18 nM | 
COc1ccc(N/N=C2\C(=O)NN=C2c2ccc(OC)cc2)cc1 | 2 nM | 
COc1cccc(N/N=C2\C(=O)NN=C2c2cccc(OC)c2)c1 | 5 nM | 
COc1cccc(C2=NNC(=O)/C2=N\Nc2ccc(C#N)cc2)c1 | 4 nM | 
COc1cccc(C2=NNC(=O)/C2=N\Nc2ccccn2)c1 | 8 nM | 

SMILES | Ki [1] | further results
COc1cccc(C2=NNC(=O)/C2=N\Nc2cccnc2)c1 | 30 nM | 
COc1ccc(N/N=C2\C(=O)NN=C2c2ccc(OC)c(OC)c2)cc1 | < 2 nM | 
COc1ccc(N/N=C2\C(=O)NN=C2c2cc(OC)c(OC)c(OC)c2)cc1 | 9 nM | 
COc1cccc(C2=NNC(=O)/C2=N\Nc2ccncc2)c1 | 23 nM | 
COc1cccc(C2=NNC(=O)/C2=N\Nc2ccc(C(=O)O)cc2)c1 | 6.5 nM | 
COc1ccc(C2=NNC(=O)/C2=N\Nc2ccc(N(C)C)cc2)cc1OC | 87 nM | 
CCN(CC)c1ccc(N/N=C2\C(=O)NN=C2c2ccc(OC)c(OC)c2)cc1 | 2 nM | 
COc1ccc(C2=NNC(=O)/C2=N\Nc2ccc(N3CCOCC3)cc2)cc1OC | 3 nM | 
COc1ccncc1C1=NNC(=O)/C1=N\Nc1ccccc1 | 4.5 nM | Ki [13]: 1800 nM; Ki [2]: 1000 nM; Ki [3]: 290 nM; Ki [6]: 3500 nM; Ki [7]: > 4000 nM; Ki [8]: > 4000 nM; Ki [14]: 540 nM; Ki [9]: > 4000 nM; Ki [10]: 1100 nM; Ki [11]: > 4000 nM; Ki [12]: 2500 nM
COc1ccc(C2=NNC(=O)/C2=N\Nc2ccc(C#N)cc2)cc1OC | < 2 nM | 
COc1ccc(C2=NNC(=O)/C2=N\Nc2cccnc2)cc1OC | < 3.5 nM | 
COc1ccc(C2=NNC(=O)/C2=N\Nc2ccncc2)cc1OC | < 3.5 nM | 
COc1ccc(C2=NNC(=O)/C2=N\Nc2cccc(Cl)c2)cc1OC | 0.4 nM | 
COc1ccc(C2=NNC(=O)/C2=N/Nc2ccc(Cl)cc2)cc1OC | < 2 nM | 
COc1ccncc1C1=NNC(=O)/C1=N\Nc1ccc(Cl)cc1 | 3 nM | 
COc1cccc(N/N=C2\C(=O)NN=C2c2ccc(OC)c(OC)c2)c1 | 0.4 nM | 
COc1ccccc1N/N=C1\C(=O)NN=C1c1cnccc1OC | 270 nM | 
COc1ccc(C2=NNC(=O)/C2=N\Nc2ccc(N3CCOCC3)cc2)cc1 | 8 nM | 
COc1ccc(C2=NNC(=O)/C2=N\Nc2ccccc2)cc1OC | < 3.5 nM | 

From ChEMBL document CHEMBL1154953, “3-Aryl-4-(arylhydrazono)-1H-pyrazol-5-ones: Highly ligand efficient and potent inhibitors of GSK3beta” (Bioorg Med Chem Lett, 2010)
